Legend:
Assay in all cases: KinaseProfiler off-target kinase profiling
Assay type in all cases: biochemical
Conditions in all cases: 10 μM, ATP near Km
HIPK1 = target: T1, HIPK1 (Homo sapiens, UniProt Q86Z02)
T1 construct: purchased Millipore, Inc. (KinaseProfiler service)
Outline: (§1)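 Screen format: one dose (10 μM), ATP ≈ Km per kinase, duplicate runs. Output: mean POC.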

FGFR1 = target: T2, FGFR1 (Homo sapiens, UniProt P11362)
T2 construct: purchased Millipore, Inc. (KinaseProfiler service)
Outline: as §1

Plk3 = target: T3, Plk3 (Homo sapiens, UniProt Q9H4B4)
T3 construct: purchased Millipore, Inc. (KinaseProfiler service)
Outline: as §1

Bmx = target: T4, Bmx (Homo sapiens, UniProt P51813)
T4 construct: purchased Millipore (KinaseProfiler service)
Outline: as §1

GRK5 = target: T5, GRK5 (Homo sapiens, UniProt P34947)
T5 construct: purchased Millipore, Inc. (KinaseProfiler service)
T5 sequence (P34947 whole entry): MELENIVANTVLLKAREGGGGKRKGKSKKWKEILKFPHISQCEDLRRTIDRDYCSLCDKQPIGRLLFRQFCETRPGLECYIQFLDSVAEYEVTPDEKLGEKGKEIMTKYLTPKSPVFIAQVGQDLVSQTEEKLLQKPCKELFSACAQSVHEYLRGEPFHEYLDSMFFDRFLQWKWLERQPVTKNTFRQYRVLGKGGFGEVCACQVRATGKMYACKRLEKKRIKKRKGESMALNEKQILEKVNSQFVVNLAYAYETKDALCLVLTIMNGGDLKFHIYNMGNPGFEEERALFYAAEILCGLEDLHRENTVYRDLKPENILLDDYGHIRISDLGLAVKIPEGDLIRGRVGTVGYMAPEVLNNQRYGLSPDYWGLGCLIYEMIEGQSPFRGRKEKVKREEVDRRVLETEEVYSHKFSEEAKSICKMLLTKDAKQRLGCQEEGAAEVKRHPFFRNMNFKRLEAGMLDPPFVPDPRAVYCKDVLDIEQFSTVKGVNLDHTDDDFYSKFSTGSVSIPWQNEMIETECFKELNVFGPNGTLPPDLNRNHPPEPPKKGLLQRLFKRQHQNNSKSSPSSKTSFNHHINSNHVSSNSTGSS
Outline: as §1

IRAK4 = target: T6, IRAK4 (Homo sapiens, UniProt Q9NWZ3)
T6 construct: purchased Millipore, Inc. (KinaseProfiler service)
T6 sequence (Q9NWZ3 whole entry): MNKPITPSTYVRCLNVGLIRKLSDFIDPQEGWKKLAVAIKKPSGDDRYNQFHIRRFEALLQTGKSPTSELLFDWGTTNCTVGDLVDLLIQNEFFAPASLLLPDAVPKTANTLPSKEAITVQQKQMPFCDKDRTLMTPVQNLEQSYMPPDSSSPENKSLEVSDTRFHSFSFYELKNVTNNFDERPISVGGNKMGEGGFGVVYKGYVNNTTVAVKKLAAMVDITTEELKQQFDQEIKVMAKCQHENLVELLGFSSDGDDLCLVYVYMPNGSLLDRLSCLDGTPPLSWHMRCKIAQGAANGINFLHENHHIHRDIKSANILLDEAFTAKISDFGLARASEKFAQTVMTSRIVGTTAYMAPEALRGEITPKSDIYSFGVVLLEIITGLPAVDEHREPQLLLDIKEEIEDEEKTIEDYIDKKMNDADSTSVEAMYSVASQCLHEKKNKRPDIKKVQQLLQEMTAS
Outline: as §1

p38delta = target: T7, p38delta (Homo sapiens, UniProt O15264)
T7 construct: purchased Millipore, Inc. (KinaseProfiler service)
Outline: as §1

PhKgamma2 = target: T8, PhKgamma2 (Homo sapiens, UniProt P15735)
T8 construct: purchased Millipore, Inc. (KinaseProfiler service)
Outline: as §1

Abl-P = target: T9, Abl-P (Homo sapiens, UniProt P00519)
T9 construct: purchased Millipore (KinaseProfiler service)
T9 sequence (P00519 27-1130 limits assumed): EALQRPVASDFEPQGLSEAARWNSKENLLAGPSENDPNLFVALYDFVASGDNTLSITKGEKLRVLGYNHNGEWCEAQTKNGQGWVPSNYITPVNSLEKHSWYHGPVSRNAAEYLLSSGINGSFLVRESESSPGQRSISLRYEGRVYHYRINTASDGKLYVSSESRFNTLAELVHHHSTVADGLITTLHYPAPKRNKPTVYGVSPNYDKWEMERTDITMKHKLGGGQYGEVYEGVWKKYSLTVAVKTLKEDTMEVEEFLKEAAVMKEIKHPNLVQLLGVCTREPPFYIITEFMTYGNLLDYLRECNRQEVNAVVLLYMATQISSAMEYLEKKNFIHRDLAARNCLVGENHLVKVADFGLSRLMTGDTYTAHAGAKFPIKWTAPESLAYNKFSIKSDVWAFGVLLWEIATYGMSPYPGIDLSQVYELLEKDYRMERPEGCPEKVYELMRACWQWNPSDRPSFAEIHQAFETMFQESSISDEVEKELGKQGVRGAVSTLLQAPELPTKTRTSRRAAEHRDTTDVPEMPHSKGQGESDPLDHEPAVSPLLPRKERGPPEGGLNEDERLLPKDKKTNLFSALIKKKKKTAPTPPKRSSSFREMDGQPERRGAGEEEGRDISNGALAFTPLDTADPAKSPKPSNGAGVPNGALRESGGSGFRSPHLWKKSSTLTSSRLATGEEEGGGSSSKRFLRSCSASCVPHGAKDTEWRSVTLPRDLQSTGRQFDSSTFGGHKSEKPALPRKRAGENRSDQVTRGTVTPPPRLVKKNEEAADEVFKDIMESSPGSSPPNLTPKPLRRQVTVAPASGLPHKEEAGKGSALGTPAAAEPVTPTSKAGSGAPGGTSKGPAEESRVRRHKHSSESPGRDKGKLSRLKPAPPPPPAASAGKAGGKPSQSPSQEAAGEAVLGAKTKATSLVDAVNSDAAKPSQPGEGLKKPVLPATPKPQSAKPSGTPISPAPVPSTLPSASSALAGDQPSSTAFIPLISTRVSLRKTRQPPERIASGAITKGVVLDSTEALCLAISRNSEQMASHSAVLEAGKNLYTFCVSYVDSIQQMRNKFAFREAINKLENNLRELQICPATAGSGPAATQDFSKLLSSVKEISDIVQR
Outline: as §1

CDK1/cyclinB = target: T10, CDK1/cyclinB (Homo sapiens, UniProt P06493)
T10 construct: purchased Millipore (KinaseProfiler service)
Outline: as §1

TAO1 = target: T11, TAO1 (Homo sapiens, UniProt Q7L7X3)
T11 construct: purchased Millipore, Inc. (KinaseProfiler service)
Outline: as §1

Pim-2 = target: T12, Pim-2 (Homo sapiens, UniProt Q9P1W9)
T12 construct: purchased Millipore, Inc. (KinaseProfiler service)
Outline: as §1

IRR = target: T13, IRR (Homo sapiens, UniProt P14616)
T13 construct: purchased Millipore, Inc. (KinaseProfiler service)
Outline: as §1

IKKalpha = target: T14, IKKalpha (Homo sapiens, UniProt O15111)
T14 construct: purchased Millipore, Inc. (KinaseProfiler service)
Outline: as §1

JNK1alpha1 = target: T15, JNK1alpha1 (Homo sapiens, UniProt P45983)
T15 construct: purchased Millipore, Inc. (KinaseProfiler service)
Outline: as §1

NEK2 = target: T16, NEK2 (Homo sapiens, UniProt P51955)
T16 construct: purchased Millipore, Inc. (KinaseProfiler service)
Outline: as §1

SRPK2 = target: T17, SRPK2 (Homo sapiens, UniProt P78362)
T17 construct: purchased Millipore, Inc. (KinaseProfiler service)
Outline: as §1

DMPK = target: T18, DMPK (Homo sapiens, UniProt Q09013)
T18 construct: purchased Millipore, Inc. (KinaseProfiler service)
Outline: as §1

p70S6K = target: T19, p70S6K (Homo sapiens, UniProt P23443)
T19 construct: purchased Millipore, Inc. (KinaseProfiler service)
Outline: as §1

p38alpha = target: T20, p38alpha (Homo sapiens, UniProt Q16539)
T20 construct: purchased Millipore, Inc. (KinaseProfiler service)
Outline: as §1

MKK7beta = target: T21, MKK7beta (Homo sapiens, UniProt O14733)
T21 construct: purchased Millipore, Inc. (KinaseProfiler service)
Outline: as §1

PKCdelta = target: T22, PKCdelta (Homo sapiens, UniProt Q05655)
T22 construct: purchased Millipore, Inc. (KinaseProfiler service)
Outline: as §1

MSK1 = target: T23, MSK1 (Homo sapiens, UniProt O75582)
T23 construct: purchased Millipore, Inc. (KinaseProfiler service)
Outline: as §1

DAPK1 = target: T24, DAPK1 (Homo sapiens, UniProt P53355)
T24 construct: purchased Millipore, Inc. (KinaseProfiler service)
Outline: as §1

Ret = target: T25, Ret (Homo sapiens, UniProt P07949)
T25 construct: purchased Millipore, Inc. (KinaseProfiler service)
Outline: as §1

DYRK2 = target: T26, DYRK2 (Homo sapiens, UniProt Q92630)
T26 construct: purchased Millipore, Inc. (KinaseProfiler service)
T26 sequence (Q92630 whole entry): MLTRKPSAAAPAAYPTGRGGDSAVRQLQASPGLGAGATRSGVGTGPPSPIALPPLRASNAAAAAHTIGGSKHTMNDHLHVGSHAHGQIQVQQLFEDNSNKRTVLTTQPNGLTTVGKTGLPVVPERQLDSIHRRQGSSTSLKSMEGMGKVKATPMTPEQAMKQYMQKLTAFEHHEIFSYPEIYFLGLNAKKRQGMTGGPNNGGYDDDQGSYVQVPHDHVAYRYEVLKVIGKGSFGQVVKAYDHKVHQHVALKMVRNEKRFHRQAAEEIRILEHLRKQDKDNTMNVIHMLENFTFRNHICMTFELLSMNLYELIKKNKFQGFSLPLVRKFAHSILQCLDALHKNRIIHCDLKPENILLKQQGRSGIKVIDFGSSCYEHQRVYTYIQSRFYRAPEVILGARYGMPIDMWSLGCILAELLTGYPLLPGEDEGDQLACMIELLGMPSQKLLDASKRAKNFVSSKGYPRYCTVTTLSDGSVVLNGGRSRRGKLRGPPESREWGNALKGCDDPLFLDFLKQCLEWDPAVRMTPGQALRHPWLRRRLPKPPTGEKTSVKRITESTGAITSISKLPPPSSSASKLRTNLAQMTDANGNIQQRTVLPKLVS
Outline: as §1

SGK1 = target: T27, SGK1 (Homo sapiens, UniProt O00141, S422D)
T27 construct: purchased Millipore, Inc. (KinaseProfiler service)
Outline: as §1

ALK4 = target: T28, ALK4 (Homo sapiens, UniProt P36896)
T28 construct: purchased Millipore (KinaseProfiler service)
Outline: as §1

MKNK2 = target: T29, MKNK2 (Homo sapiens, UniProt Q9HBH9)
T29 construct: purchased Millipore, Inc. (KinaseProfiler service)
T29 sequence (Q9HBH9 whole entry): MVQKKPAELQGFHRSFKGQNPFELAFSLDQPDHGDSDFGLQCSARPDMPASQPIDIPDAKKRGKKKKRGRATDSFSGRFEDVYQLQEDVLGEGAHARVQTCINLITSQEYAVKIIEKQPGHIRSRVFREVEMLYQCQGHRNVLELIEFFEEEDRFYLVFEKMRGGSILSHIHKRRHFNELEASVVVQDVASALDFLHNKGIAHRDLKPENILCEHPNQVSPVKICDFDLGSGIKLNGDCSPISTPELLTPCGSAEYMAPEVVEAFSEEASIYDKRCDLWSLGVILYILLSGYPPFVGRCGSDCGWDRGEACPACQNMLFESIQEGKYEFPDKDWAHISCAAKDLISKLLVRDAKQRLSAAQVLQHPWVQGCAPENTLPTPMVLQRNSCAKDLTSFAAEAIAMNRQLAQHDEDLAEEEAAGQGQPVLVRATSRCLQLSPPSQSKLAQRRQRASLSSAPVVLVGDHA
Outline: as §1

AURKA = target: T30, AURKA (Homo sapiens, UniProt O14965)
T30 construct: purchased Millipore (KinaseProfiler service)
Outline: as §1

CDK6/cyclinD3 = target: T31, CDK6/cyclinD3 (Homo sapiens, UniProt Q00534)
T31 construct: purchased Millipore, Inc. (KinaseProfiler service)
T31 sequence (Q00534 whole entry): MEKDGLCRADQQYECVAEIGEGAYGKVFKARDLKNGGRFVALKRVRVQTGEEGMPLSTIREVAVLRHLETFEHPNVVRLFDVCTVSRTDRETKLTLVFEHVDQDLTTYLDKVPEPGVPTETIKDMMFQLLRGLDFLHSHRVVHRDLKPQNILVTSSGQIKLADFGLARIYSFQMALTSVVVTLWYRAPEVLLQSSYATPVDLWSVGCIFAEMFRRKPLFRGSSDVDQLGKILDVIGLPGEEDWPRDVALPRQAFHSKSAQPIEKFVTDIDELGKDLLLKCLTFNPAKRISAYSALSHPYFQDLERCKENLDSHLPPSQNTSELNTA
T31 sequence (P30281 whole entry partner): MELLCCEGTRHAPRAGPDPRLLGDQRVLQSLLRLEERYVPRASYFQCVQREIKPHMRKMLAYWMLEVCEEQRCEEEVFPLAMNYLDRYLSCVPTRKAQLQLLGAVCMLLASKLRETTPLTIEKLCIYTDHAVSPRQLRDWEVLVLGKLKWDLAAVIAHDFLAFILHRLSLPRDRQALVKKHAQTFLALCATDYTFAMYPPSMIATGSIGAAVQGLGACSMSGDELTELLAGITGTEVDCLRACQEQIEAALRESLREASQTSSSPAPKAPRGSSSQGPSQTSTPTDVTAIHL
Outline: as §1

PAK6 = target: T32, PAK6 (Homo sapiens, UniProt Q9NQU5)
T32 construct: purchased Millipore, Inc. (KinaseProfiler service)
Outline: as §1

MST3 = target: T33, MST3 (Homo sapiens, UniProt Q9Y6E0)
T33 construct: purchased Millipore, Inc. (KinaseProfiler service)
Outline: as §1

Rse = target: T34, Rse (Homo sapiens, UniProt Q06418)
T34 construct: purchased Millipore, Inc. (KinaseProfiler service)
Outline: as §1

c-RAF = target: T35, c-RAF (Homo sapiens, UniProt P04049, Y340D/Y341D)
T35 construct: purchased Millipore, Inc. (KinaseProfiler service)
Outline: as §1

CK1delta = target: T36, CK1delta (Homo sapiens, UniProt P48730)
T36 construct: purchased Millipore, Inc. (KinaseProfiler service)
Outline: as §1

CK2alpha2 = target: T37, CK2alpha2 (Homo sapiens, UniProt P19784)
T37 construct: purchased Millipore, Inc. (KinaseProfiler service)
Outline: as §1

GSK3beta = target: T38, GSK3beta (Homo sapiens, UniProt P49841)
T38 construct: purchased Millipore, Inc. (KinaseProfiler service)
Outline: as §1

CDK9/cyclinT1 = target: T39, CDK9/cyclinT1 (Homo sapiens, UniProt P50750)
T39 construct: purchased Millipore, Inc. (KinaseProfiler service)
Outline: as §1

PDK1 = target: T40, PDK1 (Homo sapiens, UniProt O15530)
T40 construct: purchased Millipore, Inc. (KinaseProfiler service)
Outline: as §1

Mer = target: T41, Mer (Homo sapiens, UniProt Q12866)
T41 construct: purchased Millipore, Inc. (KinaseProfiler service)
T41 sequence (Q12866 21-999): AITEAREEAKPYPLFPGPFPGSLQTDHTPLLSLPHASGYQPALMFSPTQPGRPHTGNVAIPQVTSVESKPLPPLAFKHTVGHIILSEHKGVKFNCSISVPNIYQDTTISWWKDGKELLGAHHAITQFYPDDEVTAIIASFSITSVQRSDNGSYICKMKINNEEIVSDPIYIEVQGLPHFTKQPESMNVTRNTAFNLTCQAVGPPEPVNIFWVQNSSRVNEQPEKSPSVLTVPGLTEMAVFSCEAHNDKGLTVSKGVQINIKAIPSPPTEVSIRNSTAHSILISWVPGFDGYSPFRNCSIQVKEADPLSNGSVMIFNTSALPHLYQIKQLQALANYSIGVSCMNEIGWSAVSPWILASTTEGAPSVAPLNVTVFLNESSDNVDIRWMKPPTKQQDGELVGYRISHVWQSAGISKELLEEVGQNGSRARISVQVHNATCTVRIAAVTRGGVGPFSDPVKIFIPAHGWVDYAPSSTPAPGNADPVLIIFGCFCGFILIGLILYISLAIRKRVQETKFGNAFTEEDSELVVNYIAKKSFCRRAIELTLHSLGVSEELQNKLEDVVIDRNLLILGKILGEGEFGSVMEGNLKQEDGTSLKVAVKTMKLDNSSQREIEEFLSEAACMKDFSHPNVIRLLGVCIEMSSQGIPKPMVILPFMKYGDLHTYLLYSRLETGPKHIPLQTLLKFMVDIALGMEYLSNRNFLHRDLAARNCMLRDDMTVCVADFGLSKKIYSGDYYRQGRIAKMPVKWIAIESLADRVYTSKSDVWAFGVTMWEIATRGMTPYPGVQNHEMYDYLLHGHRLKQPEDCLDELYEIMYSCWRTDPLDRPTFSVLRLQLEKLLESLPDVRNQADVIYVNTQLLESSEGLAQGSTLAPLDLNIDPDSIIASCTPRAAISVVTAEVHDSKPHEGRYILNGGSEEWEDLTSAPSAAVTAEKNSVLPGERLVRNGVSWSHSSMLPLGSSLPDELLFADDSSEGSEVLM
Outline: as §1

Avg POC (HIPK1): 108 POC
Avg POC (FGFR1): 80.5 POC
Avg POC (Plk3): 105 POC
Avg POC (Bmx): 129.5 POC
Avg POC (GRK5): 82.5 POC
Avg POC (IRAK4): 112 POC
Avg POC (p38delta): 104.5 POC
Avg POC (PhKgamma2): 108 POC
Avg POC (Abl-P): 148 POC
Avg POC (CDK1/cyclinB): 106 POC
Avg POC (TAO1): 103.5 POC
Avg POC (Pim-2): 142.5 POC
Avg POC (IRR): 109 POC
Avg POC (IKKalpha): 133 POC
Avg POC (JNK1alpha1): 113 POC
Avg POC (NEK2): 122.5 POC
Avg POC (SRPK2): 113.5 POC
Avg POC (DMPK): 107.5 POC
Avg POC (p70S6K): 322 POC
Avg POC (p38alpha): 91 POC
Avg POC (MKK7beta): 143.5 POC
Avg POC (PKCdelta): 97 POC
Avg POC (MSK1): 151 POC
Avg POC (DAPK1): 126.5 POC
Avg POC (Ret): 91.5 POC
Avg POC (DYRK2): 88 POC
Avg POC (SGK1): 139.5 POC
Avg POC (ALK4): 107 POC
Avg POC (MKNK2): 95 POC
Avg POC (AURKA): 116 POC
Avg POC (CDK6/cyclinD3): 119.5 POC
Avg POC (PAK6): 135 POC
Avg POC (MST3): 157.5 POC
Avg POC (Rse): 108 POC
Avg POC (c-RAF): 96.5 POC
Avg POC (CK1delta): 117.5 POC
Avg POC (CK2alpha2): 104 POC
Avg POC (GSK3beta): 127.5 POC
Avg POC (CDK9/cyclinT1): 108 POC
Avg POC (PDK1): 115 POC
Avg POC (Mer): 105.5 POC
Structure (SMILES): Cc1c(-c2cnn(C)c2)nn(-c2ccccc2)c1NC(=O)Nc1sc(C(F)(F)F)nc1-c1ccccc1 [Example 2, 1-(1′,4-dimethyl-1-phenyl-1H,1′H-[3,4′-bipyrazol]-5-yl)-3-(4-phenyl-2-(trifluoromethyl)thiazol-5-yl)urea]
